Where two headings read alike, the source gives them in different places.
How the values were obtained:
[1] = target: T1, LAT1 (Mus musculus, UniProt Q9Z127); assay: Cis-inhibition of radiolabelled LAT1-probe substrate uptake into BV2 cells; type: cell-based; details: for IC50: 5 min, mean ± SD
Description: (§1) After removal of the culture medium, the BV2 cells were carefully washed with pre-warmed HBSS (Hank’s balanced salt solution) containing 125.0 mM choline chloride, 4.8 mM KCl, 1.2 mM MgSO4, 1.2 mM KH2PO4, 1.3 mM CaCl2, 5.6 mM glucose, and 25.0 mM HEPES (pH 7.4 adjusted with 1 M NaOH). Pre-incubation was done with 500 μL of pre-warmed HBSS at 37 °C for 10 min before adding substrates (250 μL in HBSS) for the uptake experiments.
The ability of compounds 1–15 to inhibit the uptake of a known LAT1 substrate [^14C]-L-leucine was then evaluated by incubating the cells at 37 °C for 5 min in uptake buffer pH 7.4 (250 μL) containing 0.2 µCi/mL of [^14C]-L-leucine, or 2 µCi/mL of [^3H]-L-methionine, [^3H]-L-tryptophan or [^3H]-L-kynurenine (PerkinElmer, Waltham, MA, USA) and 0.1–1000 μM of the studied compound (or HBSS as blank). After incubation, the uptake was stopped by adding 250 µL of ice-cold HBSS, and the cells were washed two times with ice-cold HBSS. The cells were then lysed with 500 μL of NaOH (0.1 M) for 60 min and the lysate was mixed with 3.5 mL of Emulsifier safe cocktail (Ultima Gold, PerkinElmer, Waltham, MA, USA). The radioactivity in the cells was measured by liquid scintillation counting (MicroBeta^2 counter, PerkinElmer Waltham, MA, USA). Half of the maximum inhibitory concentration (IC50) values were calculated by nonlinear regression analysis (fitting the curve to log (concentration) vs. remaining normalized […]).

[2] = target: T1, LAT1; assay: Inhibition type of [14C]-L-Leu uptake (Hanes-Woolf plots) in BV2 cells; type: cell-based; details: for Vmax of [14C]-L-Leu uptake: 0.010–0.20 µM [14C]-L-Leu in the presence of the compound at its IC50, mean ± SD, n = 3–4; for Vmax of [14C]-L-Leu uptake / Inhibition Type: BV2; for Inhibition Type: of [14C]-L-Leu uptake, concluded from Km and Vmax
Description: as §1
To evaluate the inhibition type of studied compounds, the BV2 cells were incubated with 0.010–0.20 μM [^14C]-L-leucine together with the studied compound. The concentration of compounds was selected according to the compound-specific IC50 values. The experiment was then carried out as described for the [^14C]-L-leucine uptake above and the radioactivity was measured by liquid scintillation counting. Hanes-Woolf plots were created by setting the ratio of initial substrate concentration to the reaction velocity ([S]/v) against [^14C]-L-leucine concentration (µM). The linear regression was used to calculate Km value (negative value of x-intercept) and Vmax value (1/slope) for [^14C]-L-leucine.

[3] = system: immortalized mouse microglia (BV2); assay: Time-dependent cellular uptake of compounds into BV2 cells (LC-MS/MS); type: cell-based; details: for Max. cellular uptake: 100 µM compound, 1–60 min, mean ± SD, n = 3
Description: (§2) For the time-dependent cellular uptake experiments, the BV2 cells on 24-well plates were incubated with studied compounds (100 μM) in a pre-warmed HBSS buffer (250 μL) at 37 °C for 1–60 min. Subsequently, the cells were washed three times with an ice-cold HBSS and lysed with 250 μL of NaOH (0.1 M) for 60 min. The lysates were diluted with acetonitrile (ACN) including the selected internal standard (diclofenac to all compounds) with a ratio of 1:3 and centrifuged at 10,000× g for 10 min. The samples were analyzed by the liquid chromatography-tandem mass spectrometric (LC-MS/MS) methods as described below. The concentrations of each compound in cell lysates were calculated from the standard curve that was prepared by spiking known amounts of compounds to ACN including the selected internal standard and then normalized with protein concentration. The protein concentrations on each plate were determined as a mean of three samples by Bio-Rad Protein Assay, based on the Bradford dye-binding method, using bovine serum albumin (BSA) as a standard protein and measuring the absorbance (595 nm) by multiplate reader (EnVision, Perkin Elmer, Inc., Waltham, MA, USA).
(§3) The studied compounds (1–15) were analyzed by using Agilent 1200 Series Rapid Resolution LC System together with an Agilent 6410 Triple Quadrupole Mass Spectrometer equipped with an electrospray ionization source (Agilent Technologies, Santa Clara, CA, USA). The chromatographic separations of analytes were achieved by using a reversed-phase Zobrax SB-C18 column (50 mm × 2.1 mm, 1.8 μm; Agilent Technologies, Santa Clara, CA, USA) by eluting the samples with 0.1% formic acid in water (A) and 0.1% formic in ACN (B). Labetalol and diclofenac were used as internal standards (ISTD) for the prodrugs and parent drugs, respectively. The transitions used for the quantification at the positive ion mode and chromatographic conditions of each compound and their parent drugs are listed in Table S1. The methods of compounds 1–11 have been reported earlier, while the methods of compounds 12–15 are reported herein for the first time.

[4] = target: T1, LAT1; assay: Concentration-dependent cellular uptake into BV2 cells, Eadie–Hofstee analysis, Transport Type 1 (LAT1); type: cell-based; details: 1–200 µM, 30 min, BV2; Eadie–Hofstee; mean ± SD, n = 3
Description: (§4) For the concentration-dependent cellular uptake experiments, the BV2 cells on 24-well plates were incubated with studied compounds (1–200 μM) in pre-warmed HBSS buffer (250 μL) at 37 °C for 30 min. The experiment was then carried out as described for the time-dependent uptake above and the concentration of studied compounds in the cell lysate was analyzed by the LC-MS/MS methods described above and the results were normalized to the total protein concentration. The distinct transport mechanisms were separated from the Michaelis-Menten kinetics by using Eadie–Hofstee plot.
as §3

[5] = target: T1, LAT1; assay: Cellular uptake of compounds in the presence of LAT1-inhibitor (KMH-233); type: cell-based; details: 100 µM compound, 100 µM KMH-233, 30 min, BV2
Description: The competitive uptake in the presence of LAT1-inhibitor (KMH-233) was carried out as described above with HBSS buffer solution containing 100 µM of the studied compounds. The cells were pre-incubated with 100 µM LAT1-inhibitor for 10 min and the incubation mixture was removed before adding the studied compound and LAT1-inhibitor on the cells. The competitive uptake (30 min) with the inhibitor was then carried out as the normal uptake described above. The amounts of studied compounds were analyzed by the LC-MS method and calculated from the spiked standard curve and normalized with the protein concentrations.

[6] = target: T1, LAT1; set-up: method as in earlier work; details: BV2 cells; probe [14C]-L-Leu; mean ± SD; published earlier; ref [31] or [33]; read-out: IC50 of [14C]-L-Leu uptake; cited from earlier work
[7] = Time-dependent cellular uptake of compounds into BV2 cells (LC-MS/MS); type: cell-based, mouse; details: mouse, BV2 microglia cells, 100 µM compound, 1–60 min, mean ± SD, n = 3, read-out: T½ of cellular uptake
Description: as §2, §3

[8] = system: Transport Type 2; assay: Concentration-dependent cellular uptake into BV2 cells, Eadie–Hofstee analysis, Transport Type 2; type: cell-based, mouse; details: 1–200 µM, 30 min, mean ± SD, n = 3
Description: as §4, §3

[9] = target: T1, LAT1; assay: Cellular uptake of L-leucine after pre-incubation of BV2 cells with the compounds; type: cell-based; details: 100 µM (L-glutamine 2 mM) pre-incubated 10 min or 3 h, L-leucine 1–400 µM, 5 min
Description: The ability of compounds 1–15 to affect the uptake of a known LAT1 substrate L-leucine was evaluated by pre-incubating the BV2 cells at 37 °C for 10 min or 3 h with uptake buffer pH 7.4 (250 μL) containing 100 µM of compounds 1–15 or thyroxin (T4), or known nuclear receptor inducible compounds, phenobarbital (constitutive androstane receptor, CAR), and dexamethasone (pregnane X receptor, PXR) as controls. […] After incubation, the reaction was stopped by adding 250 µL of ice-cold HBSS, and the cells were washed two times with ice-cold HBSS. The cells were then lysed with 500 μL of 0.1 M NaOH (60 min) and the lysate was mixed with 3.5 mL of Emulsifier safe cocktail (Ultima Gold, PerkinElmer, Waltham, MA, USA). The radioactivity in the cells was measured by liquid scintillation counting (MicroBeta^2 counter, PerkinElmer Waltham, MA, USA). The results were multiplied by the amount of un-labeled proportion of L-leucine in each sample.

[10] = system: LAT1; assay: Quantitative expression of LAT1 on the BV2 plasma membrane (LC-MS proteomics); type: cell-based, mouse; details: BV2 cells incubated 24 h; normalized to Na+/K+ATPase; compared to untreated control
Description: The protein expression levels of LAT1, in the plasma membrane fractions of BV2 cells were quantified using multiplexed MRM analysis according to the protocol described by Uchida et al.. First, the crude membrane fractions were isolated from three distinct sets of cell culture plates using Membrane Protein Extraction Kit (BioVision Incorporated, Milpitas, CA, USA) according to the manufacturer’s instructions. The protein content for each fraction was measured by Bio-Rad Protein Assay, based on the Bradford dye-binding method (EnVision, Perkin Elmer, Inc., Waltham, MA, USA). A total amount of 50 µg protein from each fraction was solubilized/denatured in 7 M guanidine hydrochloride, 0.5 M Tris-HCl and 10 mM EDTA-Na. The proteins were then reduced by dithiothreitol (1:50, w/w) and S-carboxymethylated by iodoacetamide (1:20, w/w). The alkylated proteins were precipitated by methanol/chloroform/water (4:1:3) and centrifuged at 18,000× g for 5 min at 4 °C. The pellet was resuspended in 6 M urea and mixed for 10 min at room temperature before the dilution with 0.1 M Tris-HCl (pH 8.5) to a final concentration of 1.2 M urea, and dissolved completely by intermittent sonication (Branson 3510, Danbury, CT, USA). The dissolved proteins were first digested with LysC (1/100, w/w) and 0.05% ProteaseMax (Promega Biotech AB, Nacka, Sweden) for 3 h at room temperature. Then, the samples were spiked with 10 µL (30 fmol) of the labelled peptides for absolute quantification (JPT Peptide Technologies GmbH, Berlin, Germany) (Table S2). The samples were incubated with (1/100, w/w) TPCK-Trypsin (Promega Biotech AB, Nacka, Sweden) for 18 h at 37 °C. The tryptic digestion was then quenched by adding 40 µL of 5% formic acid. The samples were then centrifuged at 18,000× g for 5 min at 4 °C, and the supernatants were transferred to vials for analysis.
The digested peptides were analyzed using an ultra-performance liquid chromatography system coupled with a triple quadrupole mass spectrometer with a heated electrospray ionization source in the positive mode (UPLC 1290 and MSD 6495, Agilent Technologies, Santa Clara, CA, USA). A total amount of 20 µL of the digested peptides (10 µg) was separated using AdvanceBio Peptide Map 2.1 × 250 mm, 2.7 μm column (Agilent Technologies, Santa Clara, CA, USA) and LC eluents of 0.1% formic acid in water (A) and acetonitrile (B). The peptides were eluted following a constant flow rate of 0.3 mL/min and a gradient of 2–7% B for 2 min, followed by 7–30% B for 48 min, 30–45% B for 3 min, and 45–80% B for 2.5 min before re-equilibrating the column again for 4.5 min. LAT1 was quantified based on the ratio between the light and heavy standard peptides, as described previously (Table S2). Data was acquired using Agilent MassHunter Workstation Acquisition (Agilent Technologies, Data Acquisition for Triple Quadrupole, version B.03.01) and processed by using Skyline software (version 20.1). The results were normalized to a housekeeping protein Na+/K+ATPase and expressed as fmol/µg of the total amount of protein in the samples.

[11] = probe [3H]-L-Kynu, n = 3–4, read-out: IC50 of [3H]-L-Kynu uptake
[12] = probe [3H]-L-Met, n = 3–4, read-out: IC50 of [3H]-L-Met uptake
[13] = probe [3H]-L-Trp, n = 3–4, read-out: IC50 of [3H]-L-Trp uptake

T1 sequence (Q9Z127 whole entry): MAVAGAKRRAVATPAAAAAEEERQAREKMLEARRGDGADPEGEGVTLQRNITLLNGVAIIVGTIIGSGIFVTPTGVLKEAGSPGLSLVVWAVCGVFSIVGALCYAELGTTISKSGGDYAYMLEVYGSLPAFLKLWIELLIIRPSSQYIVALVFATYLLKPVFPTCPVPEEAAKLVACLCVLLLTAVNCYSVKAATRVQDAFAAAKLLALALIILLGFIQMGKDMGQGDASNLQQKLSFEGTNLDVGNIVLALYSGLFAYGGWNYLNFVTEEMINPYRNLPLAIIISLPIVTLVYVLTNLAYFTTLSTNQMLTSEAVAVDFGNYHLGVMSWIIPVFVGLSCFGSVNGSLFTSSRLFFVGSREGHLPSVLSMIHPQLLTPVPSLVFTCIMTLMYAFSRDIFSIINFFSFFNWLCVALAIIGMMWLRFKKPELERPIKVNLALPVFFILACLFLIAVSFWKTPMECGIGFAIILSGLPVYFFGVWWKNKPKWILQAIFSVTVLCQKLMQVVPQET
T1 sequence (P10852 whole entry partner): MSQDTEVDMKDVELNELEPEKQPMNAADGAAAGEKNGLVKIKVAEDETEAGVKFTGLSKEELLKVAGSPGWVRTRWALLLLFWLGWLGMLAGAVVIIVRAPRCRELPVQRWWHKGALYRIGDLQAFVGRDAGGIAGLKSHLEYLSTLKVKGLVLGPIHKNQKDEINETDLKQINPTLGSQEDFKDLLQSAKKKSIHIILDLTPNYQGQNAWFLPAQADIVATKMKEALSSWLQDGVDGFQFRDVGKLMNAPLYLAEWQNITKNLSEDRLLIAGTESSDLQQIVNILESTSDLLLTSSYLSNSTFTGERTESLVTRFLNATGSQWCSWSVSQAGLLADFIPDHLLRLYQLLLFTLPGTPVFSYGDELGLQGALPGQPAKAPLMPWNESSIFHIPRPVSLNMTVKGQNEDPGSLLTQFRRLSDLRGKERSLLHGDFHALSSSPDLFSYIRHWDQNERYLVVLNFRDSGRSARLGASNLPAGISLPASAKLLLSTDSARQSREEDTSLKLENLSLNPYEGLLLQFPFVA

SMILES	IC50 [1, 11] [µM]	IC50 [1, 12] [µM]	IC50 [1, 13] [µM]	Vmax of [14C]-L-Leu uptake [2] [nmol/min/mg]	IC50 ([2]; Table 2, compound concentration used in the inhibition type study, corresponding to IC50 of [14C]-L-Leu uptake) [µM]	Inhibition Type [2]	Max. cellular uptake [3]	LAT1-substrate or LAT1-binder ([3]; concluded from time-dependent uptake, 100 µM)	Km [4] [µM]	Transport Type 1 (LAT1) Vmax [4] [pmol/mg/min]	Cellular uptake in the presence of LAT1-inhibitor [5]	IC50 [6] [µM]	Inhibition of LAT1-probe substrate uptake / LAT1 affinity ([1]; over all probe substrates)	IC50 ([1]; probe [14C]-L-Leu, n = 3–4, read-out: IC50 of [14C]-L-Leu uptake) [µM]	half-life at 100 μM [7] [min]	Km [8] [µM]	Transport Type 2 Vmax [8] [pmol/mg/min]	Effect on cellular uptake of L-Leu after pre-incubation [9]	LAT1 expression on the plasma membrane [10]
COc1ccc2cc([C@H](C)C(=O)Nc3cccc(C[C@H](N)C(=O)O)c3)ccc2c1 [Compound 11]	1.8 ± 1.2	10.4 ± 1.5	14 ± 1.2	1.515 ± 0.125	10	Non-competitive	4.48 ± 0.37 nmol/mg of protein	LAT1-binders rather than substrates	2.6 ± 1.2	53 ± 8	only reductive trends were seen	9 ± 1.1	–	–	–	–	–	–	–
COc1cc(/C=C/C(=O)Nc2cccc(C[C@H](N)C(=O)O)c2)ccc1O [Compound 6]	54.3 ± 1.3	> 100	> 100	3.224 ± 0.077	–	Non-competitive	1.11 ± 0.09 nmol/mg of protein	–	3.6 ± 0.4	0.11 ± 0.01	inhibited significantly	–	not able to inhibit the LAT1-probe substrate uptake very effectively	> 100	9.38 ± 2.33	78 ± 16	0.26 ± 0.02	induced the uptake of L-Leu	–
N[C@@H](Cc1cc(I)c(Oc2cc(I)c(O)c(I)c2)c(I)c1)C(=O)O [Compound T4, thyroxin, reference compound]	–	–	–	–	–	–	–	–	–	–	–	–	–	–	–	–	–	induced the uptake of L-Leu	downregulated LAT1 expression

— article PMC8746705, “Comparison of Experimental Strategies to Study L-Type Amino Acid Transporter 1 (LAT1) Utilization by Ligands” (Molecules, 2021)
